Patent US20210063414A1, “METHODS FOR PREVENTING AND/OR TREATING BONE LOSS CONDITIONS BY MODULATING IRISIN” (Dana-Farber Cancer Institute, Inc., priority 2018, published 2021)

Test system: inguinal fat
Test: Irisin injection in mice: Ucp1/Dio2 mRNA and Ucp1 protein in inguinal fat
Type: in vivo
Conditions: mice, co-injection with irisin
Procedure: FIG. 18A-FIG. 18B show mRNA and protein levels of indicated genes. 1 mg/kg irisin was injected to 8-week old mice every other day for 6 days. mRNA levels of indicated genes in inguinal fat were analyzed by qRT-PCR. Cyclophilin was used for housekeeping gene (FIG. 18A). Inguinal fats were also lysed to detect the indicated protein level using immunoblot analysis (FIG. 18B). FIGS. 18C and 18D show mRNA and protein levels of indicated genes. Mice were treated and analyzed as (A-B) with addition of coinjection of […] control RGD peptide or cyclo RGDyK (cRGDyK). mRNA levels of indicated genes in inguinal fat were analyzed by qRT-PCR. Cyclophilin was used for house-keeping gene (FIG. 18C). Inguinal fats were also lysed to detect the indicated protein level using immunoblot analysis (FIG. 18D). […] Ucp1 mRNA level was analyzed by qRT-PCR. […]
RNA was extracted from cultured cells or frozen tissues using TRIzol® (Thermo Fischer Scientific) and purified with RNeasy® mini kit (QIAGEN 74106). […] To perform qRT-PCR analysis, normalized RNA was reverse transcribed using a high-capacity cDNA reverse-transcription kit (Applied Biosystems™). cDNA was analyzed by qRT-PCR with indicated primers. Relative mRNA levels were calculated using the comparative CT method and normalized to cyclophilin mRNA. […]

SMILES: N=C(N)NCCC[C@@H]1NC(=O)[C@H](CCCCN)NC(=O)[C@@H](Cc2ccc(O)cc2)NC(=O)[C@H](CC(=O)O)NC(=O)CNC1=O [cyclo RGDyK]
- effect on irisin induction of the protein level of Ucp1: blocked
- effect on irisin-induced gene expression of Ucp1 and Dio2: blocked
